According to patent US9421209B2, “Kinase modulators” (Rhizen Pharmaceuticals SA, priority 2009, dated 2016):
Read-outs that look alike come from different tables or passages of the source.

How the values were obtained:
P110 δ/Pi3K δ = P110 δ/Pi3K δ (Homo sapiens, UniProt O00329); assay: Fluorescent (HTRF) determination of PI3K enzyme activity, δ isoform; assay type: biochemical; design: inhibition: dose or concentration left out as unconfirmed
In short: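 IC50 fitted from percent inhibition relative to blank and enzyme-only wells. Human PI3Kδ converts PIP2 to PIP3 after addition of 400 μM ATP solution, 30 min at room temperature. Product read by time-resolved FRET after stop and 6–18 h dark incubation with detection reagents.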

P110α = P110α (Homo sapiens, UniProt P42336); assay: Fluorescent (HTRF) determination of PI3K enzyme activity, α isoform; assay type: biochemical
Chain of P110α (P42336 whole entry, canonical isoform): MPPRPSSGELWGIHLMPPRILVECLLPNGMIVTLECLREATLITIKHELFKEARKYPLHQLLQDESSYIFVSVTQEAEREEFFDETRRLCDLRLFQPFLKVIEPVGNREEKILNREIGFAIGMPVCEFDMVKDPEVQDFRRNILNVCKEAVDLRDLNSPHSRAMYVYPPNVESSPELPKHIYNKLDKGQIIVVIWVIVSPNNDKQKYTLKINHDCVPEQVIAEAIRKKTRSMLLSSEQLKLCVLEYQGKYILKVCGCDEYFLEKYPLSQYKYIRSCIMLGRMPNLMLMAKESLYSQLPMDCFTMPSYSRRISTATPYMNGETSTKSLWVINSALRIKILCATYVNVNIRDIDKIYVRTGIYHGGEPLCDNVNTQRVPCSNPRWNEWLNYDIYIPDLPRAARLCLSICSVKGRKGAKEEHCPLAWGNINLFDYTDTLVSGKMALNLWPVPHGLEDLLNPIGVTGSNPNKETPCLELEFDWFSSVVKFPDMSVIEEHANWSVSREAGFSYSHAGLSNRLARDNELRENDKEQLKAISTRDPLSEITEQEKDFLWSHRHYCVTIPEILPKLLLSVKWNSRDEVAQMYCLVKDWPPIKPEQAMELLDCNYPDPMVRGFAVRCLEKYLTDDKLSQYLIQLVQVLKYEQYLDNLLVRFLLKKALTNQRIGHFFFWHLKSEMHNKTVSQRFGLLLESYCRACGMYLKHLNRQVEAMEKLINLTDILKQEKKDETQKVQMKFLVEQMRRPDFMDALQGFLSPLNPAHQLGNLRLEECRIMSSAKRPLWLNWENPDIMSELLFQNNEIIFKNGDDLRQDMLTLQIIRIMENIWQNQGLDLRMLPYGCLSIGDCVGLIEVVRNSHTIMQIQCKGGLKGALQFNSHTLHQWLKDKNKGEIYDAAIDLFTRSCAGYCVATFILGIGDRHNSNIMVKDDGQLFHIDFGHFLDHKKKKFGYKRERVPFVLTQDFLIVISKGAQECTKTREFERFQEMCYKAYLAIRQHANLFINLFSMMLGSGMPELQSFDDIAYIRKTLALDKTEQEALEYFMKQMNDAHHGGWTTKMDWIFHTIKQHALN
Chain of P110α (P27986 whole entry partner, canonical isoform): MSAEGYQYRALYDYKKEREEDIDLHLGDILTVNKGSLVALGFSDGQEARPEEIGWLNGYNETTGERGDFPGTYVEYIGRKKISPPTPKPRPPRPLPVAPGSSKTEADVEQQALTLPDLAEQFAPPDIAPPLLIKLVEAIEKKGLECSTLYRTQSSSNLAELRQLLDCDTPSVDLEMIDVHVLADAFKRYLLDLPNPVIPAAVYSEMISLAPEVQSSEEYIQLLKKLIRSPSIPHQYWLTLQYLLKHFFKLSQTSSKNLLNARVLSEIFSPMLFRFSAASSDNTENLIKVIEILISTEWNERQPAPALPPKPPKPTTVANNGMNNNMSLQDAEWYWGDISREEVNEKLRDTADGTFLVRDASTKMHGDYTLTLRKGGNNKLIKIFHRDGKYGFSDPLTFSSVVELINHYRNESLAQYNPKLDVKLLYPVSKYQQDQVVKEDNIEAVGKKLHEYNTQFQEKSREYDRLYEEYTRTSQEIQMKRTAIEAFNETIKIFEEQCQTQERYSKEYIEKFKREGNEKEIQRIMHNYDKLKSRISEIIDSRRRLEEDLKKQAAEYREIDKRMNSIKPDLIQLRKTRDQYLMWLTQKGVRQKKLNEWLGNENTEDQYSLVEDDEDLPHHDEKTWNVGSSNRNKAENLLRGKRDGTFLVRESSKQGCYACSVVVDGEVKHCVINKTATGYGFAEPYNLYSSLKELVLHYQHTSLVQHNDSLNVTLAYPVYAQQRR
From the text: (§1) Assay 1: Fluorescent determination of PI3Kinase Kinase enzyme activity
(§2) Phosphoinositide 3 kinases (PI3K) belong to a class of lipid kinases that play a critical role in the regulation of several key cellular processes. The PI3K are capable of phosphorylating the 3-hydroxy position of phosphoinositols thereby generating second messengers involved in downstream signalling events. The homogenous time resolved fluorescence (HTRF) assay allows detection of 3,4,5-triphosphate (PIP3) formed as a result of phosphorylation of phosphotidylinositol 4,5-biphosphate (PIP2) by PI3K isoforms such as α, β, γ or δ.
(§3) PI3K isoform activity for α, β, γ or δ was determined using a PI3K human HTRF™ Assay Kit (Millipore, Billerica, Mass.) with modifications. All incubations were carried out at room temperature. Briefly, 0.5 μl of 40× inhibitor (in 100% DMSO) or 100% DMSO were added to each well of a 384-well black plate (Greiner Bio-One, Monroe, N.C.) containing 14.5 μl 1× reaction buffer/PIP2 (10 mM MgCl2, 5 mM DTT, 1.38 μM PIP2) mix with or without enzyme and incubated for 10 min. After the initial incubation, 5 μl/well of 400 μM ATP was added and incubated for an additional 30 minutes. Reaction was terminated by adding 5 μl/well stop solution (Millipore, Billerica, Mass.). Five microliters of detection mix (Millipore, Billerica, Mass.) were then added to each well and was incubated for 6-18 h in the dark. HRTF ratio was measured on a microplate reader (BMG Labtech., Germany) at an excitation wavelength of 337 nm and emission wavelengths of 665 and 620 nm with an integration time of […]. Data were analyzed using Graphpad Prism (Graphpad software; San Diego Calif.) for IC50 determination. Percent inhibition was calculated based on the values for the blank and enzyme controls. The results are provided below in Table 2 & 3.

P110β = P110β (Homo sapiens, UniProt P42338); assay: Fluorescent (HTRF) determination of PI3K enzyme activity, β isoform; assay type: biochemical
Chain of P110β (P42338 whole entry, canonical isoform): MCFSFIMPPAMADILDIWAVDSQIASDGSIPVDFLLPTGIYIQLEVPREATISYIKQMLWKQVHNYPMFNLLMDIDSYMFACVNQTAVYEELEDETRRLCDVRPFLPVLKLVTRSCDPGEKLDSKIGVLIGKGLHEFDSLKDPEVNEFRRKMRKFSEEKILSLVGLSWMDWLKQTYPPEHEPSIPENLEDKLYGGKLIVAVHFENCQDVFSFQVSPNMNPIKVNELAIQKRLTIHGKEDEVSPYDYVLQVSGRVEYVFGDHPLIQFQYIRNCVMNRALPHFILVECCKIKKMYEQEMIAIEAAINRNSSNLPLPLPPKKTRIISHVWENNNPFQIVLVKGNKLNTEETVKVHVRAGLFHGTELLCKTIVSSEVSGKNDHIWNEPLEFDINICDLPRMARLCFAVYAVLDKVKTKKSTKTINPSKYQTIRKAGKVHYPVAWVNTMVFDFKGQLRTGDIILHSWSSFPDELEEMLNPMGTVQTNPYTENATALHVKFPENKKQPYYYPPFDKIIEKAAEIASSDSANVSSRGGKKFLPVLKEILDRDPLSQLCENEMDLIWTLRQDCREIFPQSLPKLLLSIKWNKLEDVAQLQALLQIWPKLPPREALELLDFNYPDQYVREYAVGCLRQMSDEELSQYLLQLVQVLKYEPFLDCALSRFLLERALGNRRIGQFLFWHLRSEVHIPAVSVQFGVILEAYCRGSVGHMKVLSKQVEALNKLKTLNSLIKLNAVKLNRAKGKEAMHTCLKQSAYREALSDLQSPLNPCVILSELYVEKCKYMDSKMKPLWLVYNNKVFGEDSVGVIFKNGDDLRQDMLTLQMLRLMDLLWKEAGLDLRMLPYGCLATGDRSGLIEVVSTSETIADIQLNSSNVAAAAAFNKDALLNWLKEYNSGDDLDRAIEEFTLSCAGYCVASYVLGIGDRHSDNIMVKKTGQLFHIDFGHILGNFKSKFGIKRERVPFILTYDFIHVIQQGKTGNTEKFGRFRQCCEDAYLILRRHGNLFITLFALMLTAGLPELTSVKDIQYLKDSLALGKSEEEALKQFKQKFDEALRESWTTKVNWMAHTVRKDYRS
Chain of P110β (P27986 whole entry partner, canonical isoform): as the sequence (P27986 whole entry partner, canonical isoform) above
From the text: as §1, §2, §3

[1] = read-out: P110 δ/Pi3K δ IC 50 nM
[2] = read-out: P110 δ/ Pi3K δ IC 50 nM

Chain of P110 δ/Pi3K δ (O00329 whole entry, canonical isoform): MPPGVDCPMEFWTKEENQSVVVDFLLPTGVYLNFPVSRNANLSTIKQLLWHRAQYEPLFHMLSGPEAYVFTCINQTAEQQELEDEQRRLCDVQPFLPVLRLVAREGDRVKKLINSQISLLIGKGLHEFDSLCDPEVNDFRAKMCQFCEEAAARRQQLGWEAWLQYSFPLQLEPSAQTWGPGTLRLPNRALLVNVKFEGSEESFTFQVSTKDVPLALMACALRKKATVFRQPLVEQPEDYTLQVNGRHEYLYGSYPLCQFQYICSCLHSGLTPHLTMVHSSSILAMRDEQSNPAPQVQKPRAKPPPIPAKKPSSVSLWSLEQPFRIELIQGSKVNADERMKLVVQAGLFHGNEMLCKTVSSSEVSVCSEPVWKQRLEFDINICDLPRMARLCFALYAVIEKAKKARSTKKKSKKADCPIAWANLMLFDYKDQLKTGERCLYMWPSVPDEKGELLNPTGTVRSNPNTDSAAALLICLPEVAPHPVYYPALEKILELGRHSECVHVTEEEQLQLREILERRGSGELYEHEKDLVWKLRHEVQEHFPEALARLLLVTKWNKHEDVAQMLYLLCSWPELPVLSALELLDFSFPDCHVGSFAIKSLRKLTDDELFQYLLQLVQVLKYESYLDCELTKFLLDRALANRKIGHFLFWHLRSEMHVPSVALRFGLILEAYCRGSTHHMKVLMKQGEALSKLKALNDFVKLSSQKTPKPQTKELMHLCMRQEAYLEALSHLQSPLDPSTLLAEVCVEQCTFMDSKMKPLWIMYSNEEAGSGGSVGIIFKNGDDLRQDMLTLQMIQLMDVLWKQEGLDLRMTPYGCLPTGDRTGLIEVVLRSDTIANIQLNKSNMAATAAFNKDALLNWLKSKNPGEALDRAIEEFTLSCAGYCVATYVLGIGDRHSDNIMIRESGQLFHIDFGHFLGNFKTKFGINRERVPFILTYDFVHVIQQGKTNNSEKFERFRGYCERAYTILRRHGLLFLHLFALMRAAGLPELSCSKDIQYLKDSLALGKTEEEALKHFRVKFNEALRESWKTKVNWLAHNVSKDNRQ
Chain of P110 δ/Pi3K δ (P27986 whole entry partner, canonical isoform): as the sequence (P27986 whole entry partner, canonical isoform) above

inhibition at 1 µM (P110 δ/Pi3K δ) | IC50 (P110 δ/Pi3K δ; [1]) | inhibition at 1 µM (P110α) | inhibition at 1 µM (P110β) | melting point | inhibition (P110 δ/Pi3K δ) | IC50 (P110 δ/Pi3K δ; [2]) | Structure (SMILES)
< 50% | < 250 nM | < 25% | < 25% | 207 to 209 °C | – | – | Nc1ncnc2c1ncn2Cc1oc2ccc(Br)cc2c(=O)c1-c1ccccc1 [Example 1, 2-[(6-Amino-9H-purin-9-yl)methyl]-6-bromo-3-phenyl-4H-chromen-4-one]
– | – | < 25% | < 25% | 234 to 236 °C | – | – | O=c1c(-c2ccccc2)c(Cn2cnc3c(Cl)ncnc32)oc2ccc(Br)cc12 [Example 10, 6-Bromo-2-[(6-chloro-9H-purin-9-yl)methyl]-3-phenyl-4H-chromen-4-one]
50 to 100% | < 250 nM | < 25% | < 25% | 254 to 257 °C | – | – | CC(c1oc2ccccc2c(=O)c1-c1ccccc1)n1cnc2c(N)ncnc21 (stereo not drawn) [Example 23, 2-(1-(6-Amino-9H-purin-9-yl)ethyl)-3-phenyl-4H-chromen-4-one]
50 to 100% | < 250 nM | < 25% | 25 to 50% | 196 to 198 °C | – | – | C[C@H](Nc1ncnc2[nH]cnc12)c1oc2ccc(F)cc2c(=O)c1-c1ccccc1 [Example 57, (S)-2-(1-(9H-purin-6-ylamino)ethyl)-6-fluoro-3-phenyl-4H-chromen-4-one]
– | – | < 25% | < 25% | 222 to 224 °C | 50 to 100% | < 250 nM | COc1ccc(-c2nn(C(C)c3oc4ccccc4c(=O)c3-c3cccc(F)c3)c3ncnc(N)c23)cc1F (stereo not drawn) [Example 84, 2-(1-(4-amino-3-(3-fluoro-4-methoxyphenyl)-1H-pyrazolo[3,4-d]pyrimidin-1-yl)ethyl)-3-(3-fluorophenyl)-4H-chromen-4-one]
– | – | < 25% | < 25% | – | – | – | COc1cc(F)cc(-c2nn(Cc3oc4ccc(F)cc4c(=O)c3-c3cccc(F)c3)c3ncnc(N)c23)c1 [Example 120, 2-((4-amino-3-(3-fluoro-5-methoxyphenyl)-1H-pyrazolo[3,4-d]pyrimidin-1-yl)methyl)-6-fluoro-3-(3-fluorophenyl)-4H-chromen-4-one]
– | – | – | 25 to 50% | 234 to 237 °C | < 50% | – | CC(c1oc2ccccc2c(=O)c1-c1cccc(F)c1)n1nc(-c2ccc3c(c2)OCCCO3)c2c(N)ncnc21 (stereo not drawn) [Example 136, 2-(1-(4-amino-3-(3,4-dihydro-2H-benzo[b][1,4]dioxepin-7-yl)-1H-pyrazolo[3,4-d]pyrimidin-1-yl)ethyl)-3-(3-fluorophenyl)-4H-chromen-4-one]
– | – | – | 25 to 50% | 269 to 271 °C | < 50% | – | CC(c1oc2ccccc2c(=O)c1-c1cccc(F)c1)n1nc(-c2ccc(N3CCOCC3)nc2)c2c(N)ncnc21 (stereo not drawn) [Example 137, 2-(1-(4-amino-3-(6-morpholinopyridin-3-yl)-1H-pyrazolo[3,4-d]pyrimidin-1-yl)ethyl)-3-(3-fluorophenyl)-4H-chromen-4-one]
– | – | – | 50 to 100% | 224 to 226 °C | 50 to 100% | < 250 nM | CC(C)Oc1ccc(-c2nn(C(C)c3oc4ccccc4c(=O)c3-c3cccc(F)c3)c3ncnc(N)c23)cc1 (stereo not drawn) [Example 144, 2-(1-(4-amino-3-(4-isopropoxyphenyl)-1H-pyrazolo[3,4-d]pyrimidin-1-yl)ethyl)-3-(3-fluorophenyl)-4H-chromen-4-one]
– | – | – | 25 to 50% | 224 to 226 °C | < 50% | – | CC(c1oc2ccccc2c(=O)c1-c1cccc(F)c1)n1nc(-c2ccc(OC(F)(F)F)cc2)c2c(N)ncnc21 (stereo not drawn) [Example 145, 2-(1-(4-amino-3-(4-(trifluoromethoxy)phenyl)-1H-pyrazolo[3,4-d]pyrimidin-1-yl)ethyl)-3-(3-fluorophenyl)-4H-chromen-4-one]
– | – | – | < 25% | 218 to 221 °C | 50 to 100% | – | CC(=O)c1ccc(-c2nn(C(C)c3oc4ccccc4c(=O)c3-c3cccc(F)c3)c3ncnc(N)c23)cc1 (stereo not drawn) [Example 146, 2-(1-(3-(4-acetylphenyl)-4-amino-1H-pyrazolo[3,4-d]pyrimidin-1-yl)ethyl)-3-(3-fluorophenyl)-4H-chromen-4-one]
– | – | – | 25 to 50% | 176 to 178 °C | < 50% | – | CC(c1oc2ccccc2c(=O)c1-c1cccc(F)c1)n1nc(-c2ccc(OCc3ccccc3)cc2)c2c(N)ncnc21 (stereo not drawn) [Example 147, 2-(1-(4-amino-3-(4-(benzyloxy)phenyl)-1H-pyrazolo[3,4-d]pyrimidin-1-yl)ethyl)-3-(3-fluorophenyl)-4H-chromen-4-one]
– | – | – | 50 to 100% | 214 to 217 °C | 50 to 100% | – | CC(c1oc2ccccc2c(=O)c1-c1cccc(F)c1)n1nc(-c2ccc(N(C)C)cc2)c2c(N)ncnc21 (stereo not drawn) [Example 148, 2-(1-(4-amino-3-(4-(dimethylamino)phenyl)-1H-pyrazolo[3,4-d]pyrimidin-1-yl)ethyl)-3-(3-fluorophenyl)-4H-chromen-4-one]
– | – | – | 25 to 50% | 259 to 262 °C | < 50% | – | CC(c1oc2ccccc2c(=O)c1-c1cccc(F)c1)n1nc(-c2ccc(S(C)(=O)=O)cc2)c2c(N)ncnc21 (stereo not drawn) [Example 149, 2-(1-(4-amino-3-(4-(methylsulfonyl)phenyl)-1H-pyrazolo[3,4-d]pyrimidin-1-yl)ethyl)-3-(3-fluorophenyl)-4H-chromen-4-one]
– | – | – | 25 to 50% | 162 to 165 °C | < 50% | – | CCOc1cccc(-c2nn(C(C)c3oc4ccccc4c(=O)c3-c3cccc(F)c3)c3ncnc(N)c23)c1 (stereo not drawn) [Example 150, 2-(1-(4-amino-3-(3-ethoxyphenyl)-1H-pyrazolo[3,4-d]pyrimidin-1-yl)ethyl)-3-(3-fluorophenyl)-4H-chromen-4-one]
– | – | – | 25 to 50% | 242 to 245 °C | 50 to 100% | < 250 nM | CC(c1oc2ccccc2c(=O)c1-c1cccc(F)c1)n1nc(-c2cc3ccccc3s2)c2c(N)ncnc21 (stereo not drawn) [Example 151, 2-(1-(4-amino-3-(benzo[b]thiophen-2-yl)-1H-pyrazolo[3,4-d]pyrimidin-1-yl)ethyl)-3-(3-fluorophenyl)-4H-chromen-4-one]
– | – | – | < 25% | 226 to 229 °C | < 50% | – | CC(c1oc2ccccc2c(=O)c1-c1cccc(F)c1)n1nc(-c2ccc(Cl)s2)c2c(N)ncnc21 (stereo not drawn) [Example 152, 2-(1-(4-amino-3-(5-chlorothiophen-2-yl)-1H-pyrazolo[3,4-d]pyrimidin-1-yl)ethyl)-3-(3-fluorophenyl)-4H-chromen-4-one]
– | – | – | < 25% | 218 to 222 °C | < 50% | – | Cc1noc(C)c1-c1nn(C(C)c2oc3ccccc3c(=O)c2-c2cccc(F)c2)c2ncnc(N)c12 (stereo not drawn) [Example 153, 2-(1-(4-amino-3-(3,5-dimethylisoxazol-4-yl)-1H-pyrazolo[3,4-d]pyrimidin-1-yl)ethyl)-3-(3-fluorophenyl)-4H-chromen-4-one]
– | – | – | < 25% | 178 to 182 °C | < 50% | – | CCCOc1cccc(-c2nn(C(C)c3oc4ccccc4c(=O)c3-c3cccc(F)c3)c3ncnc(N)c23)c1 (stereo not drawn) [Example 154, 2-(1-(4-amino-3-(3-propoxyphenyl)-1H-pyrazolo[3,4-d]pyrimidin-1-yl)ethyl)-3-(3-fluorophenyl)-4H-chromen-4-one]
– | – | – | < 25% | 234 to 236 °C | 50 to 100% | – | CC(c1oc2ccccc2c(=O)c1-c1cccc(F)c1)n1nc(-c2ccco2)c2c(N)ncnc21 (stereo not drawn) [Example 155, 2-(1-(4-amino-3-(furan-2-yl)-1H-pyrazolo[3,4-d]pyrimidin-1-yl)ethyl)-3-(3-fluorophenyl)-4H-chromen-4-one]
– | – | – | 25 to 50% | 229 to 232 °C | < 50% | – | CCOc1ccc(-c2nn(C(C)c3oc4ccccc4c(=O)c3-c3cccc(F)c3)c3ncnc(N)c23)cc1 (stereo not drawn) [Example 156, 2-(1-(4-amino-3-(4-ethoxyphenyl)-1H-pyrazolo[3,4-d]pyrimidin-1-yl)ethyl)-3-(3-fluorophenyl)-4H-chromen-4-one]
